In patent EP1067939B1, “USE OF STEROIDAL ALKALOID DERIVATIVES AS INHIBITORS OF HEDGEHOG PROTEIN SIGNALING PATHWAYS” (The Johns Hopkins University, priority 1998, dated 1999):
Read-outs that look alike come from different tables or passages of the source.

Tests used:
His6Hh-C = target: T1, His6Hh-C (Drosophila melanogaster, UniProt Q02936); experiment: In vitro Hh autoprocessing reaction with purified components; assay type: biochemical; conditions: for efficiency in driving the in vitro autoprocessing reaction: 12 µM sterol
T1 construct: made in house
T1 sequence (Q02936 252-471): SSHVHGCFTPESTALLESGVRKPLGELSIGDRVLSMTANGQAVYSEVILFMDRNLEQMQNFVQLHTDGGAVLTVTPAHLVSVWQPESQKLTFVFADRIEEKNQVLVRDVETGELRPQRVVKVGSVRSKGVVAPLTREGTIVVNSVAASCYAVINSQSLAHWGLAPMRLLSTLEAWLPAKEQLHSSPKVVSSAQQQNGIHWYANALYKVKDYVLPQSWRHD

BMP7 = experiment: Neural plate explant response to BMP7 (migratory HNK-1 positive cells); assay type: cell-based, chick
Shh-N = experiment: Intermediate neural plate explant response to exogenous Shh-N protein; assay type: cell-based, chick
[1] = at the concentrations that block the response to 25 nM Shh-N

CC(C)CCC[C@@H](C)[C@H]1CC[C@H]2[C@@H]3CC=C4C[C@H](O)CC[C@]4(C)[C@H]3CC[C@]12C [Epicholesterol]
participation of sterol in the autoprocessing reaction (His6Hh-C): unable to participatein the reaction

CCN(CC)CCCC(C)Nc1ccnc2cc(Cl)ccc12 (centres unmarked) [chloroquine]
signaling by BMP7 (BMP7): without affecting signaling by BMP7
concentration that blocks the response of intermediate neural plate explants to 25 nM Shh-N (Shh-N): 50 µM

CC(C)CCC[C@@H](C)[C@H]1CC[C@H]2C3=CC=C4C[C@@H](O)CC[C@]4(C)[C@H]3CC[C@]12C [7DHC, 7-dehydrocholestetol]
efficiency in driving the in vitro autoprocessing reaction (His6Hh-C): efficiencies similar to that of cholesterol

CC(C)CCC[C@@H](C)[C@H]1CC[C@H]2[C@@H]3CC=C4C[C@@H](S)CC[C@]4(C)[C@H]3CC[C@]12C [thiocholesterol]
participation of sterol in the autoprocessing reaction (His6Hh-C): unable to participatein the reaction

CC(=O)[C@H]1CC[C@H]2[C@@H]3CCC4=CC(=O)CC[C@]4(C)[C@H]3CC[C@]12C [progesterone]
signaling by BMP7 (BMP7; [1]): without affecting signaling by BMP7
concentration that blocks the response of intermediate neural plate explants to 25 nM Shh-N (Shh-N; 25 nM Shh-N): 20 µM

CC(C)=CCC[C@@H](C)[C@H]1CC[C@H]2[C@@H]3CC=C4C[C@@H](O)CC[C@]4(C)[C@H]3CC[C@]12C [desmosterol]
efficiency in driving the in vitro autoprocessing reaction (His6Hh-C): efficiencies similar to that of cholesterol

CCN(CC)CCO[C@H]1CC[C@@]2(C)C(=CC[C@@H]3[C@@H]2CC[C@]2(C)C(=O)CC[C@@H]32)C1 [U 18666A]
signaling by BMP7 (BMP7; [1]): without affecting signaling by BMP7
concentration that blocks the response of intermediate neural plate explants to 25 nM Shh-N (Shh-N; 25 nM Shh-N): 0.25 µM

C[C@H](CCCC(C)(C)O)[C@H]1CC[C@H]2[C@@H]3CC=C4C[C@@H](O)CC[C@]4(C)[C@H]3CC[C@]12C [25-hydroxycholesterol]
reversal of the inhibitory effects of the teratogenic compounds (Shh-N; 25 µM added together with teratogenic compounds): did not reverse the inhibitory effects
explant responses to Shh-N (Shh-N; 25 µM, 2nM or 25 nM Shh-N): None of the explant responses to treatment with 2nM or 25 nM Shh-N were affected

CC(C)CCC[C@@H](C)[C@H]1CC[C@H]2C3=CC[C@H]4C[C@@H](O)CC[C@]4(C)[C@H]3CC[C@]12C [lathosterol]
efficiency in driving the in vitro autoprocessing reaction (His6Hh-C): efficiencies similar to that of cholesterol

CC(C)CC[C@@H](O)[C@](C)(O)[C@H]1CC[C@@]2(O)C3=CC(=O)[C@]4(O)C[C@@H](O)[C@@H](O)C[C@]4(C)[C@H]3[C@H](O)C[C@]12C [muristerone]
stimulation of autoprocessing (His6Hh-C): do not stimulate autoprocessing above background

CC(=O)O[C@H]1CC[C@@]2(C)C(=CC[C@H]3[C@@H]4CC[C@H]([C@H](C)CCCC(C)C)[C@@]4(C)CC[C@@H]32)C1 [cholesterol acetate]
participation of sterol in the autoprocessing reaction (His6Hh-C): unable to participatein the reaction

CC(C)(O)CC[C@@H](O)[C@](C)(O)[C@H]1CC[C@@]2(O)C3=CC(=O)[C@@H]4C[C@@H](O)[C@@H](O)C[C@]4(C)[C@H]3CC[C@]12C [20-OH ecdysone]
participation of sterol in the autoprocessing reaction (His6Hh-C): unable to participatein the reaction

CC(C)=CCC[C@@H](C)[C@H]1CC[C@@]2(C)C3=C(CC[C@]12C)[C@@]1(C)CC[C@H](O)C(C)(C)[C@@H]1CC3 [Lanosterol]
stimulation of autoprocessing (His6Hh-C; 12 and 350 µM): do not stimulate autoprocessing above background

CN(C)CCCN1c2ccccc2CCc2ccccc21 [imipramine]
signaling by BMP7 (BMP7; [1]): without affecting signaling by BMP7
concentration that blocks the response of intermediate neural plate explants to 25 nM Shh-N (Shh-N; 25 nM Shh-N): 75 µM

C[C@H]([C@H](O)CCC(C)(C)O)[C@H]1CC[C@@]2(O)C3=CC(=O)[C@@H]4C[C@@H](O)[C@@H](O)C[C@]4(C)[C@H]3CC[C@]12C [α-ecdysone]
participation of sterol in the autoprocessing reaction (His6Hh-C): unable to participatein the reaction
